Data from PubChem BioAssay AID330 (DTP/NCI, 2004).
Where “and” joins values, the source holds several entries; their conditions need not be identical. Equal values may be shown once. Inconclusive results and toxic doses are left out. How the source made its calls: active means survival T/C of 150% or more; inactive means T/C below 125% in these data.

System: P388 leukemia ip, CD2F1 mice, survival T/C
Assay: NCI In Vivo Anticancer Drug Screen. Data for tumor model P388 Leukemia (intraperitoneal) in CD2F1 (CDF1) mice
Conditions: endpoint: median survival time, higher = longer survival
Outline: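 Mice carrying the transplanted tumor received test compound or vehicle. Survival was recorded in each group, and the value is the treated-group measurement divided by that of the vehicle-treated control group.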

[1] = dose: 50.0 mg/kg/injection, schedule: Q01DX005 (ip), vehicle: saline with Tween-80
[2] = dose: 200.0 mg/kg/injection, schedule: Q01DX005 (ip), vehicle: saline with Tween-80
[3] = dose: 25.0 mg/kg/injection, schedule: Q01DX009 (ip), vehicle: saline with Tween-80
[4] = dose: 50.0 mg/kg/injection, schedule: Q01DX009 (ip), vehicle: Klucel (hydroxypropylcellulose) (HPC)
[5] = dose: 100.0 mg/kg/injection, schedule: Q01DX009 (ip), vehicle: Klucel (hydroxypropylcellulose) (HPC)
[6] = dose: 200.0 mg/kg/injection, schedule: Q01DX009 (ip), vehicle: Klucel (hydroxypropylcellulose) (HPC)
[7] = dose: 50.0 mg/kg/injection, schedule: Q01DX005 (ip), vehicle: Klucel (hydroxypropylcellulose) (HPC)
[8] = dose: 100.0 mg/kg/injection, schedule: Q01DX005 (ip), vehicle: Klucel (hydroxypropylcellulose) (HPC)
[9] = dose: 200.0 mg/kg/injection, schedule: Q01DX005 (ip), vehicle: Klucel (hydroxypropylcellulose) (HPC)
[10] = dose: 100.0 mg/kg/injection, schedule: Q01DX005 (ip), vehicle: saline with Tween-80
[11] = dose: 50.0 mg/kg/injection, schedule: Q01DX009 (ip), vehicle: saline with Tween-80
[12] = dose: 100.0 mg/kg/injection, schedule: Q01DX009 (ip), vehicle: saline with Tween-80
[13] = dose: 200.0 mg/kg/injection, schedule: Q01DX009 (ip), vehicle: saline with Tween-80

Measured: T/C

N#CN
inactive: dose: 12.5 mg/kg/injection, schedule: Q01DX009 (ip), vehicle: suspension in saline 103 % of control | dose: 25.0 mg/kg/injection, schedule: Q01DX009 (ip), vehicle: suspension in saline 97 % of control | dose: 50.0 mg/kg/injection, schedule: Q01DX009 (ip), vehicle: saline 91 % of control and 103 % of control | dose: 50.0 mg/kg/injection, schedule: Q01DX009 (ip), vehicle: suspension in saline 107 % of control | dose: 100.0 mg/kg/injection, schedule: Q01DX009 (ip), vehicle: saline 101 % of control and 106 % of control | dose: 200.0 mg/kg/injection, schedule: Q01DX009 (ip), vehicle: saline 102 % of control

O=C(NCCCCCCCCCNC(=O)C12CC3CC(CC(C3)C1)C2)C12CC3CC(CC(C3)C1)C2
inactive: dose: 12.5 mg/kg/injection, schedule: Q01DX005 (ip), vehicle: saline with Tween-80 93 % of control | dose: 25.0 mg/kg/injection, schedule: Q01DX005 (ip), vehicle: saline with Tween-80 93 % of control | [1] 88 % of control | [2] 90 % of control

NCCNCC[OH2+].NCCNCC[OH2+].O=[N+]([O-])[O-].[Ni+2]
inactive: dose: 12.5 mg/kg/injection, schedule: Q01DX009 (ip), vehicle: saline 93 % of control | dose: 25.0 mg/kg/injection, schedule: Q01DX009 (ip), vehicle: saline 102 % of control

CCCCN(C)C(=S)N/N=C(\C)c1ccccn1
inactive: dose: 6.25 mg/kg/injection, schedule: Q01DX009 (ip), vehicle: saline with Tween-80 98 % of control | dose: 12.5 mg/kg/injection, schedule: Q01DX009 (ip), vehicle: saline with Tween-80 101 % of control | [3] 111 % of control

Cc1ccc(Cl)cc1N=Cc1cccs1
inactive: [4] 97 % of control | [5] 105 % of control | [6] 108 % of control

CC1N2CCc3ccccc3C2C2c3ccccc3CCN21 (stereo unspecified)
inactive: dose: 12.5 mg/kg/injection, schedule: Q01DX001 (ip), vehicle: suspension in saline 111 % of control | dose: 25.0 mg/kg/injection, schedule: Q01DX001 (ip), vehicle: suspension in saline 111 % of control | dose: 50.0 mg/kg/injection, schedule: Q01DX001 (ip), vehicle: suspension in saline 102 % of control and 118 % of control

COc1ccc(-n2c(N)c(C#N)c3c(c2=S)CCCC3)cc1
inactive: dose: 50.0 mg/kg/injection, schedule: Q01DX005 (ip), vehicle: Klucel + Tween-80 100 % of control | dose: 100.0 mg/kg/injection, schedule: Q01DX005 (ip), vehicle: Klucel + Tween-80 104 % of control | dose: 200.0 mg/kg/injection, schedule: Q01DX005 (ip), vehicle: Klucel + Tween-80 95 % of control

Nc1nc(N)nc(N(CCO)CCO)n1
inactive: [7] 111 % of control | [8] 102 % of control | [9] 106 % of control

c1ccc(P2(c3ccccc3)(c3ccccc3)C3C4C5C6C4C2C6C53)cc1 (stereo unspecified)
inactive: dose: 50.0 mg/kg/injection, schedule: Q01DX001 (ip), vehicle: saline with Tween-80 109 % of control | dose: 100.0 mg/kg/injection, schedule: Q01DX001 (ip), vehicle: saline with Tween-80 104 % of control | dose: 200.0 mg/kg/injection, schedule: Q01DX001 (ip), vehicle: saline with Tween-80 113 % of control

CC1(C)CC(=O)NC(=O)N1
inactive: [1] 99 % of control | [10] 94 % of control | [2] 104 % of control

O=c1c2ccccc2c(=O)c2c1ccc1[nH]c3ccccc3n(-c3ccccc3)c12
inactive: [7] 101 % of control | [8] 100 % of control | [9] 100 % of control

CC(=O)OCC1OC(Sc2ccc([N+](=O)[O-])cc2)C(OC(C)=O)C(OC(C)=O)C1OC(C)=O (stereo unspecified)
inactive: dose: 15.0 mg/kg/injection, schedule: Q01DX005 (ip), vehicle: saline with Tween-80 100 % of control | dose: 30.0 mg/kg/injection, schedule: Q01DX005 (ip), vehicle: saline with Tween-80 98 % of control | dose: 60.0 mg/kg/injection, schedule: Q01DX005 (ip), vehicle: saline with Tween-80 91 % of control

O=C1C(=O)c2ccccc2C(O)=C1CCCc1ccc(C2CCCCCC2)cc1
inactive: [3] 86 % of control | [11] 88 % of control | [12] 89 % of control | [13] 95 % of control

CC(C)CC1CC(=O)C(=O)C(CC(C)C)C1 (stereo unspecified)
inactive: [7] 95 % of control | [8] 97 % of control | [9] 110 % of control

Cc1c(Cl)ccc2c(C(O)CBr)cc(-c3ccccc3)nc12 (stereo unspecified)
inactive: [12] 103 % of control | [13] 109 % of control | dose: 400.0 mg/kg/injection, schedule: Q01DX009 (ip), vehicle: saline with Tween-80 100 % of control

Clc1ccc(C2=NC(c3ccccc3)/C(=C/c3ccccc3)S2)cc1 (stereo unspecified)
inactive: [11] 101 % of control | [12] 98 % of control | [13] 90 % of control

CSC1SC(C#N)=C(N)C1[n+]1ccccc1 (stereo unspecified)
inactive: dose: 25.0 mg/kg/injection, schedule: Q04DX002 (ip), vehicle: saline with Tween-80 105 % of control | dose: 50.0 mg/kg/injection, schedule: Q04DX002 (ip), vehicle: saline with Tween-80 105 % of control | dose: 100.0 mg/kg/injection, schedule: Q04DX002 (ip), vehicle: saline with Tween-80 104 % of control

C=CC(c1ccccc1)c1cc2c(cc1OCCC)OCO2 (stereo unspecified)
inactive: [7] 98 % of control | [8] 96 % of control | [9] 105 % of control

COc1cc(OC)c(NC(=S)Nc2cc(C)ccc2OC)cc1Cl
inactive: dose: 6.25 mg/kg/injection, schedule: Q01DX009 (ip), vehicle: DMSO 94 % of control | dose: 12.5 mg/kg/injection, schedule: Q01DX009 (ip), vehicle: DMSO 91 % of control | dose: 25.0 mg/kg/injection, schedule: Q01DX009 (ip), vehicle: DMSO 91 % of control | dose: 50.0 mg/kg/injection, schedule: Q01DX009 (ip), vehicle: DMSO 91 % of control and 93 % of control | dose: 100.0 mg/kg/injection, schedule: Q01DX009 (ip), vehicle: DMSO 87 % of control

O=[C-]c1ccccc1[C-]=O.[I][Ni+2][I]
inactive: dose: 6.25 mg/kg/injection, schedule: Q01DX005 (ip), vehicle: saline 94 % of control | dose: 12.5 mg/kg/injection, schedule: Q01DX005 (ip), vehicle: saline 94 % of control | dose: 25.0 mg/kg/injection, schedule: Q01DX005 (ip), vehicle: saline 110 % of control

CN(C)c1ccc(C(O)C(N)=O)cc1 (stereo unspecified)
inactive: dose: 6.25 mg/kg/injection, schedule: Q04DX003 (ip), vehicle: saline 100 % of control | dose: 12.5 mg/kg/injection, schedule: Q04DX003 (ip), vehicle: saline 104 % of control | dose: 25.0 mg/kg/injection, schedule: Q04DX003 (ip), vehicle: saline 100 % of control

COc1ccc(C(=O)c2ccccc2)cc1
inactive: [4] 105 % of control | [5] 108 % of control | [6] 102 % of control | dose: 400.0 mg/kg/injection, schedule: Q01DX009 (ip), vehicle: Klucel (hydroxypropylcellulose) (HPC) 98 % of control

CCN(CC)CCNc1ccc([N+](=O)[O-])c2sc3cc(Cl)ccc3c(=O)c12
inactive: [1] 100 % of control | [10] 104 % of control | [2] 102 % of control
